Test results reported in PMC9861180, “Nintedanib-αVβ6 Integrin Ligand Conjugates Reduce TGFβ-Induced EMT in Human Non-Small Cell Lung Cancer” (International Journal of Molecular Sciences, 2023).
“Also recorded” adds a separate entry of the source. Each block holds one compound with its values, some of them ahead of it.

Key:
[1] = target: T1, human recombinant VEGFR2 (Homo sapiens, UniProt P35968); experiment: VEGFR2 tyrosine kinase inhibition, radiometric (Eurofins); format: biochemical; settings: nine-point concentration-response curve, radiometric detection; read-out: IC50, inhibition of VEGFR2 phosphorylation
T1 construct: purchased Eurofins (Cerep laboratories; KinaseProfiler, IC50 Profiler service)
T1 sequence (P35968 20-1356): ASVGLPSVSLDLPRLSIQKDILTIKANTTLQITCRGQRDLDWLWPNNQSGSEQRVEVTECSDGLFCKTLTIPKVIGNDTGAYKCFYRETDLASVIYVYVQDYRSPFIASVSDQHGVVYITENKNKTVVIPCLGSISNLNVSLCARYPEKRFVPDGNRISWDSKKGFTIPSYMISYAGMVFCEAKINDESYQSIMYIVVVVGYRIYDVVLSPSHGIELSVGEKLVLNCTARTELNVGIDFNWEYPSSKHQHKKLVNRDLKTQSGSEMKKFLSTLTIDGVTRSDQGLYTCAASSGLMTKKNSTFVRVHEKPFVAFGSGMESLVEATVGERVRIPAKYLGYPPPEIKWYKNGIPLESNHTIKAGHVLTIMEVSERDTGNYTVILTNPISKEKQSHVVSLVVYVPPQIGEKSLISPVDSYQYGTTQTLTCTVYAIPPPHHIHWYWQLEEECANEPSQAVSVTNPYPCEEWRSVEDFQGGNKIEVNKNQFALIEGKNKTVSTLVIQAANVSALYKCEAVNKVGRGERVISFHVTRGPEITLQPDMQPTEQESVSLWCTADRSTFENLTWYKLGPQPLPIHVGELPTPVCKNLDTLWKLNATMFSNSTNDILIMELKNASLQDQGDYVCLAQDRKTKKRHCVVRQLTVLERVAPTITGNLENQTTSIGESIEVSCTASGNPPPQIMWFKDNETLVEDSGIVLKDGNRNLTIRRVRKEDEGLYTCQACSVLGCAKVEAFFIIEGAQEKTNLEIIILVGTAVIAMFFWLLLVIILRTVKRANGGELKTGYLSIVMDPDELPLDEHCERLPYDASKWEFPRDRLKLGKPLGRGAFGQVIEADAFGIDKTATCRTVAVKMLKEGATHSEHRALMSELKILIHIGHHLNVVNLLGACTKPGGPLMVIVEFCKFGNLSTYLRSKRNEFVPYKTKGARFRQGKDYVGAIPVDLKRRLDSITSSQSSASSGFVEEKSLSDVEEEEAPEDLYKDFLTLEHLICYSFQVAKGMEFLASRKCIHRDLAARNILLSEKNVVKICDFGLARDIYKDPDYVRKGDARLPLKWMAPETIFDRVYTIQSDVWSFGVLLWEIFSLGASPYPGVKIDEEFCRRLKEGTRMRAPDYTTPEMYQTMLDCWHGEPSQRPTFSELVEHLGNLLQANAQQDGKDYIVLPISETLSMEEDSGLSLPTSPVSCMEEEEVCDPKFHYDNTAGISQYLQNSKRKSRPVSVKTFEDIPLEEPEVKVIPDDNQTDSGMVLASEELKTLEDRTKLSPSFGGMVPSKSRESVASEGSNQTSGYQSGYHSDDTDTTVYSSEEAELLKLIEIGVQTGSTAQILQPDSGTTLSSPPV
Procedure: Inhibition of receptor phosphorylation was measured by a radiometric detection method. IC50 values were determined from a nine-point concentration−response curve generated using the standard assay conditions for the target.

[2] = tested on: TGFβ-treated A549 cells; experiment: cells; format: cell-based, human; settings: 24 h
Procedure: A549 cell viability was assessed using MTT (3-(4,5-dimethylthiazol-2-yl)-2,5-diphenyltetrazolium bromide) tetrazolium reduction assay (M5655, Sigma Aldrich, Milan, Italy), as described in [58]. Briefly, A549 cells were treated for 48 h in complete medium with TGFβ (10 ng/mL). Next, cells (2.5 × 10^3) were plated into 96-multiwell plates in 100 µL of complete medium. After adhesion, the compounds were added to the medium at different concentrations. After 24 h exposure, the medium was replaced with 100 µL MTT reagent in each well, and plates were incubated at 37 °C. After 2 h, MTT was removed, and the blue MTT–formazan product was solubilized with dimethyl sulfoxide (DMSO, Sigma Aldrich). The absorbance of the formazan solution was read at 595 nm using the microplate reader (Bio-Rad, Milan, Italy). Inhibition of cell proliferation was calculated by the IC50 calculator (AAT Bioquest, Inc., Pleasanton, CA, USA, https://www.aatbio.com/ (accessed on 1 July 2022)).

[3] = tested on: αvβ6 integrin receptor; experiment: Expression of αvβ6 integrin by cytofluorimetric analysis; format: cell-based, human
Procedure: (§1) Expression of αvβ6 integrins was determined by cytofluorimetric analysis. Human NSCLC A549 and H1975 cells, either grown in standard conditions or exposed to TGFβ treatment, were detached from the substrate using Accutase® to minimize the exposure of the extracellular membrane proteins to the enzymatic activity of trypsin. The cells were then incubated with primary antibodies, in the absence of membrane permeabilization. The cytofluorimetric procedures ensured quantification of the αvβ6 integrin receptor protruding outside the cells. […] These percentages increased to 66% of the parental population in A549 cells and to 55% in H1975, when the cells were exposed to TGFβ for 48 h (Figure 2B,D). […] In addition, we evaluated αvβ6 integrin expression on human melanoma cells (SSM2c, Figure S4A) and murine fibroblasts (L929, Figure S5A), whereas expression of the αvβ3 integrin receptor in these cells had been previously evaluated.
(§2) A549, L929, and K562 cells were allowed to grow in standard conditions; in several experiments, A549 cells were grown in the presence or in the absence of recombinant human TGFβ (10 ng/mL) (#11343160 Immunotools Friesoythe Germany). […] After extensive washes using cytofluorimetric buffer, cells were analyzed using a BD FACSCanto™ flow cytometry system (BD Bioscience, Eysins, Switzerland).

[4] = tested on: αvβ3 integrin; experiment: Expression of αvβ3 integrin by cytofluorimetric analysis; format: cell-based, human
Procedure: as §1
as §2, with “Switzerland). […]” for “Switzerland).”

[5] = tested on: A549 cells; experiment: Inhibition of A549 cell adhesion to fibronectin; format: cell-based, human
Procedure: (§3) To verify whether conjugates 1–3 were able to bind the integrin receptor efficiently and compete with the receptor’s natural ligand (fibronectin) for the binding site, we performed an inhibition of adhesion assay. In this assay, the biological effects of the three conjugated compounds were compared to the inhibitory ability of the unconjugated ligand 4. Inhibition of A549 and H1975 cell adhesion to fibronectin was determined in both untreated and TGFβ-treated cells. The assay was carried out with increasing concentrations of compounds 1–3 and unconjugated cyclic peptidomimetic 4. […]
(§4) Figure 3 Inhibition of A549 (A,B) and H1975 (C,D) cell adhesion to FN (10 μg/mL) in the presence of compounds 1–3, or c(AmpLRGDL) 4 (2 h). […] The inhibitory activity was calculated as the percentage of cell adhesion to FN in untreated cells and was expressed as mean ± SEM. […]
(§5) 96-well plates were coated with fibronectin (10 µg/mL) (sc-29011 SantaCruz, D.B.A., Milano, Italia) by overnight incubation at 4 °C. […] Next, A549 cells were washed by centrifugation with PBS, counted, and suspended in serum-free medium at 0.6 × 10^6 cells/mL. […] After 2 h of incubation at […], cells were permeabilized with 50 µL of DMSO (C6164, Sigma-Aldrich Merk Life Science S.r.l. Milano, Italy) and plates were examined at 550 nm in a counter BioRad (550 Microplate Reader, BioRad, Milano, Italy). […]

[6] = tested on: H1975 cells; experiment: Inhibition of H1975 cell adhesion to fibronectin; format: cell-based, human; settings: untreated and TGFβ-treated, increasing concentrations
Procedure: as §3, §4, §5

[7] = tested on: A549 cells; experiment: Inhibition of A549 cell adhesion to vitronectin; format: cell-based, human; settings: A549 cells and TGFβ-treated A549 cells
Procedure: The highest levels of inhibition in A549 cells were registered with compounds 1 and 2, which were able to inhibit more than 50% adhesion in TGFβ-treated cells even at concentrations of 1 μM, a percentage that raised to 70% when these compounds were tested at 5 μM. […] Moreover, high levels of inhibition were registered in H1975 cells with compounds 1–3 that reached a minimum of 50% inhibition of adhesion in TGFβ-treated cells at 1 μM. These percentages increased to 70% when the compounds were tested at 5 μM. […] As already mentioned, the expression of αvβ3 integrins in A549 cells was reduced after exposure to TGFβ. Since αvβ3 integrins are one of the most avid receptors for vitronectin (VN), we investigated whether compounds 1–4 were able to inhibit A549 cell adhesion to VN. We discovered that, in A549 cells and in TGFβ-treated A549 cells, cell adhesion to vitronectin was not inhibited by the three different conjugated compounds nor by compound 4 (Figure S2E); this lack of efficacy is probably due to the lower binding affinity of the integrin ligand towards the αvβ3 integrin receptors.
2. […]
Figure S2. […] The inhibitory activity was calculated as the percentage of cell adhesion to VN in untreated cells and was expressed as means ± SEM. […]

[8] = tested on: α-smooth muscle actin (α-SMA); experiment: α-smooth muscle actin protein expression, Western blot; format: cell-based, human; settings: TGFβ-treated A549 cells, 5 μM, 24 h
Procedure: Data are expressed as means ± SEM of fold increment compared to untreated cells normalized to α-tubulin.
Western blot analysis was performed on whole-cell lysates of A549 cells, exposed for 48 h to TGFβ treatment and subsequently exposed to 5 µM concentrations of different compounds. After 24 h incubation, media were rapidly removed and cell monolayers were lysed as previously described in RIPA lysis buffer, with the addition of proteinase inhibitor cocktail (04693124001 Roche Merk Life Science S.r.l., Milano, Italy) for 30 min in ice [35]. Protein content was quantified, and forty-fifty micrograms of total proteins were separated on Bolt® Bis-Tris Plus gels 4–12% (Life Technologies, Monza, Italy). Fractionated proteins were transferred from the gel to a PVDF nitrocellulose membrane using iBlot 2 system (Life Technologies, Monza, Italy). Membranes were blocked for 5 min at room temperature, with EveryBlot Biorad blocking buffer (Life Technologies, Monza, Italy). […] The protein bands were analyzed by the Odyssey Infrared Imaging System (Lycor Bioscience) using software for protein quantification. […]

[9] = tested on: tumor spheroids of TGFβ-treated A549 cells and murine L929 fibroblasts; experiment: Inhibition of 3D tumor spheroid growth; format: cell-based, human; settings: 5 µM, 72 h, vs untreated spheroids
Procedure: Heterogeneous spheroids of tumor cells and fibroblasts were generated using the hanging drop technique to mimic the complex three-dimensional environment of tumor tissues. […] Next, the fluorescence intensities associated with each cell population were analyzed as previously described.
Hanging drop tumor spheroids were prepared starting from 1:1 mixed cell population (1000 cells/25μL) of TGF𝛽-treated A549 cells and murine L929 fibroblasts. […] (C) Quantitative analysis of inhibition of 3D growth and (D) 3D spheroid internalization of the compounds after 72 h exposure. Data are representative of three independent experiments (n = 6) and expressed as means ± SEM. * p < 0.05 vs. untreated spheroids.
A549 cells, exposed for 48 h to TGFβ treatment, were mixed in a 1:1 ratio with murine L929 fibroblast (40,000/mL) in order to obtain 3D multicellular tumor spheroids (MCTS) resembling cellular heterogenicity of the neoplastic lesion. […] After one week, multicellular tumor spheroids were completely formed. Tumor spheroids were next used in different experimental procedures. […] For 3D growth inhibition, spheroids were placed on 2% agarose coated dishes in complete medium containing the different treatments at 5 µM concentration. Spheroid areas were analysed and compared to time 0 and used to evaluate the inhibition of 3D growth (yellow lines). Images of all spheroids were taken daily using the EVOS XL Core Imaging System with a 10x objective (Thermofisher Scientific, Waltham, MA, USA ). All images were analysed using the open-source software ImageJ (1.52a, National Institutes of Health, Bethesda, MD, USA).

[10] = tested on: tumor spheroids of TGFβ-treated A549 cells and murine L929 fibroblasts; experiment: Tumor spheroid 2D flat surface migration and growth; format: cell-based, human; settings: 5 µM, fibronectin-coated flat surface
Procedure: Heterogeneous spheroids of tumor cells and fibroblasts were also used to evaluate the ability of the compounds to inhibit 2D flat surface migration and growth once the spheroids were allowed to attach to a suitable surface (Figure 8).
Hanging drop tumor spheroids were allowed to spread on a 2D fibronectin-coated flat surface. […] Data are representative of three independent experiments (n = 6) and expressed as means ± SEM. * p < 0.05 vs. untreated spheroids.
A549 cells, exposed for 48 h to TGFβ treatment, were mixed in a 1:1 ratio with murine L929 fibroblast (40,000/mL) in order to obtain 3D multicellular tumor spheroids (MCTS) resembling cellular heterogenicity of the neoplastic lesion. […] After one week, multicellular tumor spheroids were completely formed. Tumor spheroids were next used in different experimental procedures. We evaluated 2D flat surface inhibition of migration and growth, and the inhibition of 3D growth. For 2D flat surface migration and growth inhibition assays, the spheroids were placed on regular culture dishes and allowed to spread and grow in complete medium containing different compounds at 5 µM concentration. The areas of cell spreading were used as parameters for migration (red lines), while the areas of the spheroid core were used as parameters for 2D growth (yellow lines). For 3D growth inhibition, spheroids were placed on 2% agarose coated dishes in complete medium containing the different treatments at 5 µM concentration. Spheroid areas were analysed and compared to time 0 and used to evaluate the inhibition of 3D growth (yellow lines). Images of all spheroids were taken daily using the EVOS XL Core Imaging System with a 10x objective (Thermofisher Scientific, Waltham, MA, USA ). All images were analysed using the open-source software ImageJ (1.52a, National Institutes of Health, Bethesda, MD, USA).

[11] = tested on: αvβ6 integrin; set-up: method as in PMID 32634263; settings: cited from earlier work
[12] = tested on: αvβ3 integrin; set-up: method as in PMID 32634263; settings: isolated integrin; cited from earlier work

- IC50 [1]: 0.006 µM
- IC50 [2]: 9.5 µM
Compound: COC(=O)c1ccc2c(c1)NC(=O)/C2=C(\Nc1ccc(N(C)C(=O)CN2CCN(CCCCNC(=O)CCc3cn(CCCCCC(=O)N4C[C@@H]5C[C@H]4C(=O)N[C@@H](CC(C)C)C(=O)N[C@@H](CCCNC(=N)N)C(=O)NCC(=O)N[C@@H](CC(=O)O)C(=O)N[C@@H](CC(C)C)C(=O)N5)nn3)CC2)cc1)c1ccccc1 [compound 1]

Compound: TGFβ: recombinant human TGFβ (10 ng/mL) used to induce EMT and αvβ6 expression
- cell population expressing αvβ6 integrin receptor ([3]; A549 cells exposed to TGFβ (10 ng/mL) for 48 h): 66%
- cell population expressing αvβ6 integrin receptor ([3]; H1975 cells exposed to TGFβ (10 ng/mL) for 48 h): 55%
- αvβ3 integrin expression ([4]; A549 cells exposed to TGFβ (10 ng/mL) 48 h, 72% without TGFβ): 32%
- αvβ3 integrin expression ([4]; H1975 cells, unaffected by TGFβ treatment): 98%

Compound: c(AmpLRGDL) [compound 4]
- level of inhibition of cell adhesion to fibronectin ([5]; even TGFβ-treated, all concentrations tested): ≤ 50%
- inhibition of cell adhesion to fibronectin (in words) ([5]; untreated and TGFβ-treated, increasing concentrations): weak concentration dependence
- inhibition of cell adhesion to fibronectin (in words) [6]: weak concentration-dependence
- inhibition of cell adhesion to vitronectin [7]: not inhibited
- α-SMA protein expression [8]: not able to affect
- inhibition of 3D spheroid growth [9]: did not induce a significant reduction; also recorded: transient reduction
- 2D flat surface migration of tumor spheroids [10]: did not inhibit cell growth and migration; also recorded: considerably weaker effect
- 2D growth of tumor spheroids (spheroid core) [10]: did not inhibit cell growth and migration; also recorded: very weak inhibition
- IC50 ([11]; isolated integrin): 0.0083 ± 0.0004 µM
- selectivity IC50(αvβ3)/IC50(αvβ6) ([11]; isolated integrins): 255
- IC50 [12]: 2.12 ± 0.266 µM

- IC50 [2]: 10.1 µM
Compound: COC(=O)c1ccc2c(c1)NC(=O)/C2=C(\Nc1ccc(N(C)C(=O)CN2CCN(CCOCCOCCOCc3cn(CCCCCC(=O)N4C[C@@H]5C[C@H]4C(=O)N[C@@H](CC(C)C)C(=O)N[C@@H](CCCNC(=N)N)C(=O)NCC(=O)N[C@@H](CC(=O)O)C(=O)N[C@@H](CC(C)C)C(=O)N5)nn3)CC2)cc1)c1ccccc1 [compound 2]
